According to EPA's ToxValDB 9.5 (doi:10.2903/j.efsa.2019.5821):
≈ marks a conversion by molar mass, not a printed value.

Experiments:
Rattus norvegicus = conditions: for NOAEL: body weight
Oncorhynchus mykiss = conditions: acute; duration: 96 hours; mortality
Oryctolagus sp. = conditions: developmental; development
Apis mellifera = conditions: acute, mortality
Daphnia magna = conditions: chronic/long-term; duration: 21 days; reproduction
Folsomia candida = conditions: chronic/long-term; duration: 28 days; mortality
Mus musculus = conditions: chronic; duration: 18 months; body weight
Tagia sp. = conditions: chronic/long-term; duration: 56 days; reproduction
Typhlodromus pyri = assay: LR50; higher = less toxic; conditions: not reported; mortality

Row | Structure (SMILES) | NOAEL (Rattus norvegicus; short-term, duration: 28 days) [mg/kg-day] | LC50 (Oncorhynchus mykiss) [µg/mL] | NOAEL (Oryctolagus sp.) [mg/kg-day] | LD50 (Apis mellifera; dermal) [µg/piece] | LD50 (Apis mellifera; oral, unspecified) [µg/piece] | LC50 (Colinus virginianus; acute, oral, diet, mortality) [mg/kg-day] | LD50 (Colinus virginianus; acute, oral, mortality) [mg/kg-day] | NOEC (Colinus virginianus; reproduction developmental) [mg/kg-day] | NOEC (Daphnia magna) [mg/L] | NOEC (Folsomia candida) [mg/kg] | NOAEL (Mus musculus) [mg/kg-day] | LD50 (Rattus norvegicus; acute, oral, mortality) [mg/kg-day] | NOAEL (Rattus norvegicus; reproduction developmental) [mg/kg-day] | NOEC (Tagia sp.) [mg/kg] | LR50 (Typhlodromus pyri) [g/ha]
1 | Cn1cc(C(N)=O)c(C(F)F)n1 [3-(Difluoromethyl)-1-methyl-1H-pyrazole-4-carboxamide] | 37.4 | – | – | – | – | – | – | – | – | – | – | – | – | – | –
2 | Cn1cc(C(=O)O)c(C(F)F)n1 [3-(Difluoromethyl)-1-methyl-1H-pyrazole-4-carboxylic acid] | – | > 100 | 250 | – | – | – | – | – | – | – | – | – | – | – | –
3 | CON(C(=O)c1cn(C)nc1C(F)F)C(C)Cc1c(Cl)cc(Cl)cc1Cl (configuration not stated) [Pydiflumetofen] | – | 0.18 (≈ 0.422 µM) | 10 | > 100 | > 116 | > 1260 | 3780 | 90.1 | 0.042 | 186 | 9.2 | > 5000 | 30 | 15.9 | > 408
